# Target: T1, mGlyT-1b (Mus musculus, UniProt P28571)
# T1 construct: host or cells: Flp-in-CHO
# T1 sequence (P28571 1-651 isoform P28571-2): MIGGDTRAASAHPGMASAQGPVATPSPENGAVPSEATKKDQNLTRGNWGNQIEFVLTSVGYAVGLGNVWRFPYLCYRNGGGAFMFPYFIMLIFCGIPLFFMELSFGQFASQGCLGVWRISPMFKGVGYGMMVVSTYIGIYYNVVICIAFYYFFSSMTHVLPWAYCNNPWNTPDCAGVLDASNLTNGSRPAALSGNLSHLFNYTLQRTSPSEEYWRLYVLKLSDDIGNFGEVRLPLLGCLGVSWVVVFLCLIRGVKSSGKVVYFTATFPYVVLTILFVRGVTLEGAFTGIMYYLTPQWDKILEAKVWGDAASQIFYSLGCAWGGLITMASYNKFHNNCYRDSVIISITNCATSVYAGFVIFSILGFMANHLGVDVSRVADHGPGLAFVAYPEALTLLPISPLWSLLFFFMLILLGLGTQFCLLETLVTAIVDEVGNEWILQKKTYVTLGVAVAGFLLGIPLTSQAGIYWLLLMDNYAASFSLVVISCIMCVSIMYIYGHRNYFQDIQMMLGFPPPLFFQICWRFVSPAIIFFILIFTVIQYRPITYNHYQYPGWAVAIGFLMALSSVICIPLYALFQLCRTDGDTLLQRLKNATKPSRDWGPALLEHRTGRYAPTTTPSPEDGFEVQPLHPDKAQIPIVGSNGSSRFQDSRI
# Assay: Glycine Uptake Inhibition Assay (mGlyT-1b)
# Format: cell-based
# Settings: [3H]-glycine uptake in Flp-in-CHO cells stably transfected with mGlyT1b cDNA; 20 min preincubation at 22° C.; read-out: IC50 (μM) at GlyT-1
# Description: DMEM complete medium: Nutrient mixture F-12 (Gibco Life-technologies), fetal bovine serum (FBS) 5%, (Gibco life technologies), Penicillin/Streptomycin 1% (Gibco life technologies), Hygromycin 0.6 mg/ml (Gibco life technologies), Glutamine 1 mM Gibco life technologies)
# Uptake buffer (UB): 150 mM NaCl, 10 mM Hepes-Tris, pH 7.4, 1 mM CaCl2, 2.5 mM KCl, 2.5 mM MgSO4, 10 mM (+) D-glucose. Flp-in™-CHO (Invitrogen Cat n^o R758-07)cells stably transfected with mGlyT1b cDNA.
# Glycine Uptake Inhibition Assay (mGlyT-1b)
# On day 1 mammalian cells, (Flp-in™-CHO), transfected with mGlyT-1b cDNA, were plated at the density of 40,000 cells/well in complete F-12 medium, without hygromycin in 96-well culture plates. On day 2 ,the medium was aspirated, and the cells were washed twice with uptake buffer (UB). The cells were then incubated for 20 min at 22° C. with either (i) no potential competitor, (ii) 10 mM non-radioactive glycine, (iii) a concentration of a potential inhibitor. A range of concentrations of the potential inhibitor was used to generate data for calculating the concentration of inhibitor resulting in 50% of the effect (e.g. IC50, the concentration of the competitor inhibiting glycine uptake of 50%). A solution was then immediately added containing [^3H]-glycine 60 nM (11-16 Ci/mmol) and 25 μM non-radioactive glycine. The plates were incubated with gentle shaking, and the reaction was stopped by aspiration of the mixture and washing (three times) with ice-cold UB. The cells were lysed with scintillation liquid, shaken 3 hours, and the radioactivity in the cells was counted using a scintillation counter.
row,SMILES,IC50
1,"CS(=O)(=O)c1ccc(-c2ccc(F)cc2)c(C(=O)N2CCN(c3ccc(C(F)(F)F)cc3F)CC2)c1 [Example 63, (4′-Fluoro-4-methanesulfonyl-biphenyl-2-yl)-[4-(2-fluoro-4-trifluoromethyl-phenyl)-piperazin-1-yl]-methanone]",0.01 µM
2,"CC(=O)c1ccc(N2CCN(C(=O)c3cc(S(C)(=O)=O)ccc3C3=CCOCC3)CC2)c(F)c1 [Example 72, 1-(4-{4-[2-(3,6-Dihydro-2H-pyran-4-yl)-5-methanesulfonyl-benzoyl]-piperazin-1-yl}-3-fluoro-phenyl)-ethanone]",0.021 µM
3,"CS(=O)(=O)c1ccc(-c2ccsc2)c(C(=O)N2CCN(c3ccc(C(F)(F)F)cc3)CC2)c1 [Example 53, (5-Methanesulfonyl-2-thiophen-3-yl-phenyl)-[4-(4-trifluoromethyl-phenyl)-piperazin-1-yl]-methanone]",0.006 µM
4,"Cc1ccc(-c2ccc(S(C)(=O)=O)cc2C(=O)N2CCN(c3ccc(C(F)(F)F)cc3)CC2)s1 [Example 55, [5-Methanesulfonyl-2-(5-methyl-thiophen-2-yl)-phenyl]-[4-(4-trifluoromethyl-phenyl)-piperazin-1-yl]-methanone]",0.039 µM
5,"CC(=O)c1ccc(N2CCN(C(=O)c3cc(S(C)(=O)=O)ccc3C3=CCCCC3)CC2)c(F)c1 [Example 68, 1-{4-[4-(2-Cyclohex-1-enyl-5-methanesulfonyl-benzoyl)-piperazin-1-yl]-3-fluoro-phenyl}-ethanone]",0.007 µM
6,"CS(=O)(=O)c1ccc(C2=CCOCC2)c(C(=O)N2CCN(c3ccc(C(F)(F)F)cc3)CC2)c1 [Example 60, [2-(3,6-Dihydro-2H-pyran-4-yl)-5-methanesulfonyl-phenyl]-[4-(4-trifluoromethyl-phenyl)-piperazin-1-yl]-methanone]",0.019 µM
7,"CS(=O)(=O)c1ccc(-c2ccccc2)c(C(=O)N2CCN(c3ccc(C(F)(F)F)cc3F)CC2)c1 [Example 62, [4-(2-Fluoro-4-trifluoromethyl-phenyl)-piperazin-1-yl]-(4-methanesulfonyl-biphenyl-2-yl)-methanone]",0.019 µM
8,"CC(=O)c1ccc(N2CCN(C(=O)c3cc([N+](=O)[O-])ccc3C3CC3)CC2)c(F)c1 [Example 16, 1-{4-[4-(2-Cyclopropyl-5-nitro-benzoyl)-piperazin-1-yl]-3-fluoro-phenyl}-ethanone]",0.026 µM
9,"CS(=O)(=O)c1ccc(-c2cccs2)c(C(=O)N2CCN(c3ccc(C(F)(F)F)cc3)CC2)c1 [Example 52, (5-Methanesulfonyl-2-thiophen-2-yl-phenyl)-[4-(4-trifluoromethyl-phenyl)-piperazin-1-yl]-methanone]",0.033 µM
10,"CC(=O)c1ccc(N2CCN(C(=O)c3cc(S(C)(=O)=O)ccc3C3=CCCC3)CC2)c(F)c1 [Example 71, 1-{4-[4-(2-Cyclopent-1-enyl-5-methanesulfonyl-benzoyl)-piperazin-1-yl]-3-fluoro-phenyl}-ethanone]",0.013 µM
11,"CCc1ccc(N2CCN(C(=O)c3cc(S(C)(=O)=O)ccc3C3CCCCC3)CC2)c(F)c1 [Example 69, (2-Cyclohexyl-5-methanesulfonyl-phenyl)-[4-(4-ethyl-2-fluoro-phenyl)-piperazin-1-yl]-methanone]",0.031 µM
12,"CC(=O)c1ccc(N2CCN(C(=O)c3cc([N+](=O)[O-])ccc3-c3ccccc3)CC2)c(F)c1 [Example 15, 1-{3-Fluoro-4-[4-(4-nitro-biphenyl-2-carbonyl)-piperazin-1-yl]-phenyl}-ethanone]",0.023 µM
13,"CS(=O)(=O)c1ccc(-c2ccncc2)c(C(=O)N2CCN(c3ccc(C(F)(F)F)cc3)CC2)c1 [Example 59, (5-Methanesulfonyl-2-pyridin-4-yl-phenyl)-[4-(4-trifluoromethyl-phenyl)-piperazin-1-yl]-methanone]",0.033 µM
14,"COC(=O)c1ccc([N+](=O)[O-])cc1C(=O)N1CCN(c2ccc(C(C)=O)cc2F)CC1 [Example 43, 2-[4-(4-Acetyl-2-fluoro-phenyl)-piperazine-1-carbonyl]-4-nitro-benzoic acid methyl ester]",0.032 µM
15,"CC(=O)c1ccc(N2CCN(C(=O)c3cc(S(C)(=O)=O)ccc3C3=CCCCCC3)CC2)c(F)c1 [Example 73, 1-{4-[4-(2-Cyclohept-1-enyl-5-methanesulfonyl-benzoyl)-piperazin-1-yl]-3-fluoro-phenyl}-ethanone]",0.013 µM

# More lines, now with the values ahead:
row,IC50,SMILES
1,0.012 µM,"CNS(=O)(=O)c1ccc(-c2ccccc2)c(C(=O)N2CCN(c3ccc(C(F)(F)F)cc3)CC2)c1 [Example 76, 2-[4-(4-Trifluoromethyl-phenyl)-piperazine-1-carbonyl]-biphenyl-4-sulfonic acid methylamide]"
2,0.008 µM,"CS(=O)(=O)c1ccc(C2CCCC2)c(C(=O)N2CCN(c3ccc(C(F)(F)F)cc3)CC2)c1 [Example 79, (2-Cyclopentyl-5-methanesulfonyl-phenyl)-[4-(4-trifluoromethyl-phenyl)-piperazin-1-yl]-methanone]"
3,0.014 µM,"CS(=O)(=O)c1ccc(C2=CCCCCC2)c(C(=O)N2CCN(c3ccc(C(F)(F)F)cc3)CC2)c1 [Example 75, (2-Cyclohept-1-enyl-5-methanesulfonyl-phenyl)-[4-(4-trifluoromethyl-phenyl)-piperazin-1-yl]-methanone]"
4,0.022 µM,"CS(=O)(=O)c1ccc(C2=CCOCC2)c(C(=O)N2CCN(c3ccc(C(F)(F)F)cc3F)CC2)c1 [Example 91, [2-(3,6-Dihydro-2H-pyran-4-yl)-5-methanesulfonyl-phenyl]-[4-(2-fluoro-4-trifluoromethyl-phenyl)-piperazin-1-yl]-methanone]"
5,0.036 µM,"CC(=O)c1ccc(N2CCN(C(=O)c3cc(S(C)(=O)=O)ccc3-c3ccsc3)CC2)cc1 [Example 127, 1-{4-[4-(5-Methanesulfonyl-2-thiophen-3-yl-benzoyl)-piperazin-1-yl]-phenyl}-ethanone]"
6,0.035 µM,"CS(=O)(=O)c1ccc(-c2ccccc2)c(C(=O)N2CCN(c3ncc(C(F)(F)F)cc3Cl)CC2)c1 [Example 114, [4-(3-Chloro-5-trifluoromethyl-pyridin-2-yl)-piperazin-1-yl]-(4-methanesulfonyl-biphenyl-2-yl)-methanone]"
7,0.039 µM,"CS(=O)(=O)c1ccc(-c2ccccc2F)c(C(=O)N2CCN(c3ccc(C#N)cc3F)CC2)c1 [Example 126, 3-Fluoro-4-[4-(2′-fluoro-4-methane-sulfonyl-biphenyl-2-carbonyl)-piperazin-1-yl]-benzonitrile]"
8,0.011 µM,"CS(=O)(=O)c1ccc(C2=CCCCC2)c(C(=O)N2CCN(c3ccc(C(F)(F)F)cc3)CC2)c1 [Example 77, (2-Cyclohex-1-enyl-5-methanesulfonyl-phenyl)-[4-(4-trifluoromethyl-phenyl)-piperazin-1-yl]-methanone]"
9,0.038 µM,"CS(=O)(=O)c1ccc(-c2ccccc2F)c(C(=O)N2CCN(c3ncc(C(F)(F)F)cc3Cl)CC2)c1 [Example 111, [4-(3-Chloro-5-trifluoromethyl-pyridin-2-yl)-piperazin-1-yl]-(2′-fluoro-4-methanesulfonyl-biphenyl-2-yl)-methanone]"

# Test system: not given
# Assay: not given
# Settings: not given
row,melting point,SMILES
1,209 to 211 °C,"CC(=O)c1ccc(N2CCN(C(=O)c3c(Cl)ccc([N+](=O)[O-])c3Cl)CC2)c(F)c1 [Example 12, 1-{4-[4-(2,6-Dichloro-3-nitro-benzoyl)-piperazin-1-yl]-3-fluoro-phenyl}-ethanone]"
2,189 to 191 °C,"COC(=O)c1ccc([N+](=O)[O-])cc1C(=O)N1CCN(c2ccc(C(C)=O)cc2F)CC1 [Example 43, 2-[4-(4-Acetyl-2-fluoro-phenyl)-piperazine-1-carbonyl]-4-nitro-benzoic acid methyl ester]"

# Reference: patent US7462617B2, “Substituted acylpiperazine derivatives” (Hoffmann-La Roche Inc., priority 2003, dated 2008)
